Measured values as given in ChEMBL document CHEMBL1201862, “PubChem BioAssay data set” (2004).
Calls of active or inactive are those of the source.

What was measured:
Type in all cases: functional
[1] = biological target: T1, High affinity choline transporter 1 (Homo sapiens, UniProt Q9GZV3); test: CHT inhibitors, dose response, cell-based, 5-point CRC, membrane potential dye (AID 504840)
T1 sequence (Q9GZV3 whole entry): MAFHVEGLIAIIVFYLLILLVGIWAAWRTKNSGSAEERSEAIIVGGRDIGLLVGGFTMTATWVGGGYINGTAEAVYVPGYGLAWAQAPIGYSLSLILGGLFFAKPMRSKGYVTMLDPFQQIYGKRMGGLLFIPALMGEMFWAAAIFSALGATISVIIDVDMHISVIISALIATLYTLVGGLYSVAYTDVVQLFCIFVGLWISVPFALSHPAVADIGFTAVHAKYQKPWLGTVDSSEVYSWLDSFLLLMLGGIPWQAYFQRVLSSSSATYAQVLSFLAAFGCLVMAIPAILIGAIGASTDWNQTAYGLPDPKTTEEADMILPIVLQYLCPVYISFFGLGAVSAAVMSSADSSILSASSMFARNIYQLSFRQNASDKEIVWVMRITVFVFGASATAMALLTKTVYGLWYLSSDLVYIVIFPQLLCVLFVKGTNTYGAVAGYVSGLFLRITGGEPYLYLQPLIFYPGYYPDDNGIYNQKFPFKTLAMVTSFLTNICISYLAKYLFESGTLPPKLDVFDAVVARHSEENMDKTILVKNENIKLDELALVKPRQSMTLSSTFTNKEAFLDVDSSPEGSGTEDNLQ

[2] = biological target: T1, High affinity choline transporter 1; test: CHT inhibitors, dose response, cell-based, 10-point CRC, membrane potential dye (AID 588401);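 further: membrane potential dye fluorescence of choline-evoked depolarization via CHT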
[3] = biological target: Casein kinase I isoform alpha (Homo sapiens, UniProt P48729)
[4] = biological target: Mitogen-activated protein kinase kinase kinase kinase 4 (Homo sapiens, UniProt O95819)
Activated CDC42 kinase 1 = Activated CDC42 kinase 1 (Homo sapiens, UniProt Q07912); test: Navigating the Kinome. Panel member name: ACK1
[5] = biological target: Vascular endothelial growth factor receptor 1 (Homo sapiens, UniProt P17948);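 further: measured within a kinome-wide profiling panel, FLT1 as the panel member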
[6] = biological target: Serine/threonine-protein kinase TAO1 (Homo sapiens, UniProt Q7L7X3)
[7] = biological target: Serine/threonine-protein kinase Nek2 (Homo sapiens, UniProt P51955)
[8] = biological target: Death-associated protein kinase 3 (Homo sapiens, UniProt O43293);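 further: measured as one member of a kinome-wide profiling panel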
[9] = biological target: G protein-coupled receptor kinase 5 (Homo sapiens, UniProt P34947); test: Navigating the Kinome. Panel member name: GPRK5
[10] = biological target: ALK tyrosine kinase receptor (Homo sapiens, UniProt Q9UM73);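 further: ALK tested as one member of a kinase panel screen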
[11] = biological target: Calcium/calmodulin-dependent protein kinase type II subunit alpha (Homo sapiens, UniProt Q9UQM7); test: Navigating the Kinome. Panel member name: CAMK2A
[12] = biological target: Tyrosine-protein kinase BTK (Homo sapiens, UniProt Q06187)
[13] = biological target: Mitogen-activated protein kinase 8 (Homo sapiens, UniProt P45983);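 further: value comes from one member of a kinome-wide kinase profiling panel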
[14] = biological target: Dual specificity protein kinase CLK4 (Homo sapiens, UniProt Q9HAZ1)
[15] = biological target: Macrophage-stimulating protein receptor (Homo sapiens, UniProt Q04912); test: Navigating the Kinome. Panel member name: MST1R
[16] = biological target: Mitogen-activated protein kinase 14 (Homo sapiens, UniProt Q16539);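 further: part of a kinome-wide panel, MAPK14 entry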
[17] = biological target: Serine/threonine-protein kinase Chk1 (Homo sapiens, UniProt O14757);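 further: measured as one member of a kinome-wide kinase profiling panel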
[18] = biological target: Cyclin-dependent kinase 5 (Homo sapiens, UniProt Q00535);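 further: CDK5 measured as one member of a kinase profiling panel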
[19] = biological target: Tyrosine-protein kinase JAK3 (Homo sapiens, UniProt P52333)
[20] = biological target: Dual specificity tyrosine-phosphorylation-regulated kinase 1A (Homo sapiens, UniProt Q13627);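 further: measured against DYRK1A as one member of a broad kinome profiling panel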
[21] = biological target: Cyclin-dependent kinase 8 (Homo sapiens, UniProt P49336); test: Navigating the Kinome. Panel member name: CDK8
Aurora kinase A = Aurora kinase A (Homo sapiens, UniProt O14965);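 further: value from the Navigating the Kinome kinase panel profiling, panel entry STK6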
Activin receptor type-1 = Activin receptor type-1 (Homo sapiens, UniProt Q04771); test: Navigating the Kinome. Panel member name: ACVR1
[22] = biological target: BDNF/NT-3 growth factors receptor (Homo sapiens, UniProt Q16620);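 further: NTRK2 measured as one member of a broad kinome-wide kinase profiling panel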
[23] = biological target: Dual specificity protein kinase CLK2 (Homo sapiens, UniProt P49760)
LIM domain kinase 1 = LIM domain kinase 1 (Homo sapiens, UniProt P53667); test: Navigating the Kinome. Panel member name: LIMK1
[24] = biological target: Tyrosine-protein kinase Lck (Homo sapiens, UniProt P06239);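 further: lck was assayed as one member of a kinase panel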
[25] = biological target: Tyrosine-protein kinase Fyn (Homo sapiens, UniProt P06241)
[26] = biological target: Serine/threonine-protein kinase D3 (Homo sapiens, UniProt O94806);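 further: determined within a kinase panel screen, with PRKCN as the panel member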
[27] = biological target: Fibroblast growth factor receptor 1 (Homo sapiens, UniProt P11362)
Aurora kinase B = Aurora kinase B (Homo sapiens, UniProt Q96GD4)
[28] = biological target: Cyclin-dependent kinase 7 (Homo sapiens, UniProt P50613);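 further: value comes from a kinome-wide kinase profiling panel in which CDK7 is one member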
[29] = biological target: Mitogen-activated protein kinase 9 (Homo sapiens, UniProt P45984);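 further: value from a kinome panel profiling assay, MAPK9 panel entry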
Focal adhesion kinase 1 = Focal adhesion kinase 1 (Homo sapiens, UniProt Q05397);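 further: measured as one member of a kinome panel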
[30] = biological target: Serine/threonine-protein kinase pim-1 (Homo sapiens, UniProt P11309)
[31] = biological target: Glycogen synthase kinase-3 alpha (Homo sapiens, UniProt P49840);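 further: GSK3A result taken from a broad kinome-wide kinase panel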
[32] = biological target: Dual specificity mitogen-activated protein kinase kinase 2 (Homo sapiens, UniProt P36507); test: Navigating the Kinome. Panel member name: MAP2K2
[33] = biological target: Serine/threonine-protein kinase PAK 4 (Homo sapiens, UniProt O96013);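 further: value obtained within a kinome profiling panel in which PAK4 was one of the panel members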
[34] = biological target: Neuropeptides B/W receptor type 1 (Homo sapiens, UniProt P48145); test: GPR7 antagonist potency, late-stage follow-up, cell-based, fluorescence, dose response, set 6 (AID 588583)
[35] = biological target: Melanin-concentrating hormone receptor 1 (Homo sapiens, UniProt Q99705); test: Late-stage fluorescence-based counterscreen for antagonists of the G-protein coupled receptor 7 (GPR7): cell-based dose response assay to identify antagonists of the melanin-concentrating hormone receptor 1 (MCHR1) Set 6.

Sequence of Glycogen synthase kinase-3 alpha (P49840 whole entry): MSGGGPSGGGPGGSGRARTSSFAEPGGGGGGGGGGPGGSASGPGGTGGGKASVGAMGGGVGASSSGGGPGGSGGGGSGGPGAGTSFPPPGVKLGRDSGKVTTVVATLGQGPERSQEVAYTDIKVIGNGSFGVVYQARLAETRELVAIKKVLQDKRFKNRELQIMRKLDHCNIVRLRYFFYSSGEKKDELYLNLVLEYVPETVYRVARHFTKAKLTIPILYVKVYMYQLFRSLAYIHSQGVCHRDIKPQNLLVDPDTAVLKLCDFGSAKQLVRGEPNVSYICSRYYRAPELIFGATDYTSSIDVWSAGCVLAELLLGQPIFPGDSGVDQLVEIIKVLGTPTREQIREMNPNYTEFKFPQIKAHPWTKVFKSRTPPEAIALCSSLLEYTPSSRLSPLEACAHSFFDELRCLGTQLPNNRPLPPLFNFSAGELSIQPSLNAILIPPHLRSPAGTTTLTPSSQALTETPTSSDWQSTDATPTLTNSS
Sequence of ALK tyrosine kinase receptor (Q9UM73 whole entry): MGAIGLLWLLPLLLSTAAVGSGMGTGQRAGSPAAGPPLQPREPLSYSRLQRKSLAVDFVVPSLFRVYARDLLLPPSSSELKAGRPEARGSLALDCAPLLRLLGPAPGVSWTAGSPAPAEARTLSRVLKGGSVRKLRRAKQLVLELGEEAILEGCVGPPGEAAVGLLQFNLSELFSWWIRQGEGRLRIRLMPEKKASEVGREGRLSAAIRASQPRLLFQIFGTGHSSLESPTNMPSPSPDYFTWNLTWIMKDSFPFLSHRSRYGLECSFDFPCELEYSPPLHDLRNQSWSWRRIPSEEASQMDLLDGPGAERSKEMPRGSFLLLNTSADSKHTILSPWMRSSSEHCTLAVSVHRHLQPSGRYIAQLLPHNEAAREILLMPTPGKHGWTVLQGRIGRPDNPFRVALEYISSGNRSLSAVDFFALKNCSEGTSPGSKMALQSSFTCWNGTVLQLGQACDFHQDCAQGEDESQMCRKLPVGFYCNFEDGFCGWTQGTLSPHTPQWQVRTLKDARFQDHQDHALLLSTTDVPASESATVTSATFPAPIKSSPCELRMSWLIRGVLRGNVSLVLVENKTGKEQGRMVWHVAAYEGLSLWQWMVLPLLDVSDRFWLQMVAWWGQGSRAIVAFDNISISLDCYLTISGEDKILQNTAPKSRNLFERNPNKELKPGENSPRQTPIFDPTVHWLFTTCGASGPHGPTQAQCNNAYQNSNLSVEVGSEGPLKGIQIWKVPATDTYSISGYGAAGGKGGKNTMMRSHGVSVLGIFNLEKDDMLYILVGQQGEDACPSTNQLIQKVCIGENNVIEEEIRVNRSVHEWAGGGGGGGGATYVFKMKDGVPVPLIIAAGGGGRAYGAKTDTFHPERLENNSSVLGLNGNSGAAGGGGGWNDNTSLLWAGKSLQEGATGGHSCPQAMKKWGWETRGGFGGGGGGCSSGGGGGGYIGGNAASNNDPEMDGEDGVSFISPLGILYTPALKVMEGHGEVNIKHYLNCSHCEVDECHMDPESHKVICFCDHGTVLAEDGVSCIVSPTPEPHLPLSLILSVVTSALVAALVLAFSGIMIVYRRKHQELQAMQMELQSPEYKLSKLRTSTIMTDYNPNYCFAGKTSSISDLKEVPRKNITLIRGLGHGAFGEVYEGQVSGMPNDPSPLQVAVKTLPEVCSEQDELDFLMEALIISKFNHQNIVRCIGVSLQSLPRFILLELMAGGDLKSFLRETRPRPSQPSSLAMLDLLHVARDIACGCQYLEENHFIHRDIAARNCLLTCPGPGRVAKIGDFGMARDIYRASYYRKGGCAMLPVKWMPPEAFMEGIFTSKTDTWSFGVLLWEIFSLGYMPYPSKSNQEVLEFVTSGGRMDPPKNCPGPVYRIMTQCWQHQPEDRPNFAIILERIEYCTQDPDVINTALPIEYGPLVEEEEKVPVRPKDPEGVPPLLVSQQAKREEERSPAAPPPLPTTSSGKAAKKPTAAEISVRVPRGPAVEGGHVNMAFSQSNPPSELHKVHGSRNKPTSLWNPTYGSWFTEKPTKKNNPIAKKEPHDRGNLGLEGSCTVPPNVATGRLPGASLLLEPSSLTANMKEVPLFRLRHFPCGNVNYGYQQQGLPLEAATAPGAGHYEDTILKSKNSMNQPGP
Sequence of Serine/threonine-protein kinase Nek2 (P51955 whole entry): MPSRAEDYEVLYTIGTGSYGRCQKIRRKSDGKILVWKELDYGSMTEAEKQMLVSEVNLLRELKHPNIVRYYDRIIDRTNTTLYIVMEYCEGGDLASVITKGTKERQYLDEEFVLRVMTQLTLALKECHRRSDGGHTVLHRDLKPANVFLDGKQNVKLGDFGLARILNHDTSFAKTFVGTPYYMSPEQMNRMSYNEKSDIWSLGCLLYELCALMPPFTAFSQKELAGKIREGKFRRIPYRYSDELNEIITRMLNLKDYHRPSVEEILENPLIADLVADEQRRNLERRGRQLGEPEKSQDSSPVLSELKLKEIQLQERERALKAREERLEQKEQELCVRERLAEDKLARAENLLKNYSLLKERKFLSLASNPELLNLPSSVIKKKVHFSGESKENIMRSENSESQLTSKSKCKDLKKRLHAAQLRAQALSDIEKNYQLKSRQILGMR
Sequence of Serine/threonine-protein kinase D3 (O94806 whole entry): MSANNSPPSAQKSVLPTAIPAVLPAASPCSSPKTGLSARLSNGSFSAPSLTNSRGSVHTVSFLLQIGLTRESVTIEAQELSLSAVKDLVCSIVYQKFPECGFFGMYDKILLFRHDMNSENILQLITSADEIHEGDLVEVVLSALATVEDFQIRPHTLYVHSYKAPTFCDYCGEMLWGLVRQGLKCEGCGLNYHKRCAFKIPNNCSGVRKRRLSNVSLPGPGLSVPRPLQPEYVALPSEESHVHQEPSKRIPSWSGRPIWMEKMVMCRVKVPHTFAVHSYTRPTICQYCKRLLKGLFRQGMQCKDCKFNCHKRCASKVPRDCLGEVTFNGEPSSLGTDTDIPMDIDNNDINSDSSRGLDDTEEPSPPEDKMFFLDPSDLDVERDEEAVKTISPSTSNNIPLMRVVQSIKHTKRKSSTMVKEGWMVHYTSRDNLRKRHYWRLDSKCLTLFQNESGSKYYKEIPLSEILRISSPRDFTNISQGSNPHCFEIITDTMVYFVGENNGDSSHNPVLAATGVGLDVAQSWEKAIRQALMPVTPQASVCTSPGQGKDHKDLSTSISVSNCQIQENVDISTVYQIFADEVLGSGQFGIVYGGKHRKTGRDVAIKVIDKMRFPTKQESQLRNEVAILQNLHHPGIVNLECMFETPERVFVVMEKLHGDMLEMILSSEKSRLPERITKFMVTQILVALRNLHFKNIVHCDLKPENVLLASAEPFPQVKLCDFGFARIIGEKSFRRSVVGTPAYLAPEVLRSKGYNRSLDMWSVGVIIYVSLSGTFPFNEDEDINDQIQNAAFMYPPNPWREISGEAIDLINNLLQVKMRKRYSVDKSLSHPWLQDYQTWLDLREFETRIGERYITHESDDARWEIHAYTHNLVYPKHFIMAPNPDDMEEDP
Sequence of Mitogen-activated protein kinase 8 (P45983 whole entry): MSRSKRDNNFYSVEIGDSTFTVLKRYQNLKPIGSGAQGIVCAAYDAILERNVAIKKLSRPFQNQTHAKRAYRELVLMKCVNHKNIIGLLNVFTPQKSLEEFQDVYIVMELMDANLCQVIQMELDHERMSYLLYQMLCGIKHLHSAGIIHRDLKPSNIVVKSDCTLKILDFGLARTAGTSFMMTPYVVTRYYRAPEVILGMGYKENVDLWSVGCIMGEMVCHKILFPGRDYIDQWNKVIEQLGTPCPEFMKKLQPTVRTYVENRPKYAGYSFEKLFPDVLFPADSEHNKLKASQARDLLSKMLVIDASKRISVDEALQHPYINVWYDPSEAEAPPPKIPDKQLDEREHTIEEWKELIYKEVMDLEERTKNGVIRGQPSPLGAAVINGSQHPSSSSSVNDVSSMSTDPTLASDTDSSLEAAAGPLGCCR
Sequence of G protein-coupled receptor kinase 5 (P34947 whole entry): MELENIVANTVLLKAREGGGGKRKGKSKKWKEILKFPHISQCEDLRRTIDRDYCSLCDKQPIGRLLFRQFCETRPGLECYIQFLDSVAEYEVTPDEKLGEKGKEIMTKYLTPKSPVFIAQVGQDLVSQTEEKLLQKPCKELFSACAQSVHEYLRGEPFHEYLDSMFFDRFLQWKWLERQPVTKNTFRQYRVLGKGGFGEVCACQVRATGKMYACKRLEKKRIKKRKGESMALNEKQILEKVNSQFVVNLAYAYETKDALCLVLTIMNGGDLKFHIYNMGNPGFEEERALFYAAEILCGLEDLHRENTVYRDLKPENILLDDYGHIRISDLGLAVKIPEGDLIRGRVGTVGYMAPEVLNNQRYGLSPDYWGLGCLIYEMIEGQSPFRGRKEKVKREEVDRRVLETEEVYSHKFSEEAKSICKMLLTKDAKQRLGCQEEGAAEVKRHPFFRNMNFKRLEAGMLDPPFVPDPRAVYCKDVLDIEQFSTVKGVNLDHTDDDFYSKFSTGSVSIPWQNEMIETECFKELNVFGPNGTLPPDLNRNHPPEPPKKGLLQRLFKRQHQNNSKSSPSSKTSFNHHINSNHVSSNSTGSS
Sequence of Neuropeptides B/W receptor type 1 (P48145 whole entry): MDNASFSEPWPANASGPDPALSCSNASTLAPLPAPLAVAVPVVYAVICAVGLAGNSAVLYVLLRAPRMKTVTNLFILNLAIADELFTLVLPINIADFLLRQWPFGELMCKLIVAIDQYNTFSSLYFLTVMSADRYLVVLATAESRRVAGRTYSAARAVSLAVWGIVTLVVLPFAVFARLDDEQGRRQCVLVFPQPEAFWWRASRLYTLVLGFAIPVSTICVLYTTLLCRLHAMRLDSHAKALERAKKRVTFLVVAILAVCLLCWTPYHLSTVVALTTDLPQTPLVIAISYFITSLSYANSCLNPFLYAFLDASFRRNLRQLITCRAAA

CCCCN(CCCC)CCCNC(=O)C12CN(Cc3ccccc3)CC1C(c1cccc([N+](=O)[O-])c1)=NO2 (stereo unspecified)
IC50 [1]: 2.46 µM (active)
IC50 [2]: 1.19 µM (active)

Nc1ccc2c(C(=O)O)n(-c3ccccc3)nc2c1
Ki [3]: 2.51 µM (active)
Ki [4]: > 5.01 µM (inactive)
Ki (Activated CDC42 kinase 1): > 3.98 µM (inactive)
Ki [5]: > 3.98 µM (inactive)
Ki [6]: > 6.31 µM (inactive)
Ki [7]: 2 µM (active)
Ki [8]: > 5.01 µM (inactive)
Ki [9]: > 3.98 µM (inactive)
Ki [10]: > 6.31 µM (inactive)
Ki [11]: > 3.98 µM (inactive)
Ki [12]: > 6.31 µM (inactive)
Ki [13]: > 5.01 µM (inactive)
Ki [14]: 0.501 µM (active)
Ki [15]: > 3.98 µM (inactive)
Ki [16]: > 3.98 µM (inactive)
Ki [17]: 0.398 µM (active)
Ki [18]: 2.51 µM (active)
Ki [19]: > 5.01 µM (inactive)
Ki [20]: 1 µM (active)
Ki [21]: 3.16 µM (active)
Ki (Aurora kinase A): 1.26 µM (active)
Ki (Activin receptor type-1): > 3.98 µM (inactive)
Ki [22]: > 3.98 µM (inactive)
Ki [23]: > 3.98 µM (inactive)
Ki (LIM domain kinase 1): 0.794 µM (active)
Ki [24]: > 6.31 µM (inactive)
Ki [25]: > 6.31 µM (inactive)
Ki [26]: > 3.98 µM (inactive)
Ki [27]: > 3.98 µM (inactive)
Ki (Aurora kinase B): > 3.98 µM (inactive)
Ki [28]: > 3.98 µM (inactive)
Ki [29]: > 3.98 µM (inactive)
Ki (Focal adhesion kinase 1): > 6.31 µM (inactive)
Ki [30]: > 6.31 µM (inactive)
Ki [31]: > 3.98 µM (inactive)
Ki [32]: > 3.98 µM (inactive)
Ki [33]: > 5.01 µM (inactive)

N#CC(c1ccc(Cl)cc1)c1c(Cl)cnn(Cc2cccc3ccccc23)c1=O (stereo unspecified)
IC50 [34]: 0.83 µM (active)
IC50 [35]: 0.83 µM (active)
